Measured values: ChEMBL document CHEMBL5550194, “Design and synthesis of phosphoryl-substituted steroidal pyridazines (Pho-STPYRs) as potent estrogen receptor alpha inhibitors: targeted treatment of hormone-dependent breast cancer cells” (RSC Med Chem, 2024)
Calls of active or inactive are those of the source. The rule behind the calls is not given here.

What was measured:
MDA-MB-231 [1] = assay: Antiproliferative activity against estrogen-independent human MDA-MB-231 cells assessed as inhibition of cell growth by MTT assay; format: functional, cell-based
MCF7 [2] = assay: Antiproliferative activity against estrogen-responsive human MCF7 cells assessed as inhibition of cell growth by MTT assay; format: functional, cell-based
MCF7 [3] = assay: Antiproliferative activity against human MCF7 cells assessed as inhibition of cell growth incubated for 72 hrs by MTT assay; format: functional, cell-based; conditions: MCF7, 72 h
MDA-MB-231 [4] = assay: Antiproliferative activity against human MDA-MB-231 cells assessed as inhibition of cell growth incubated for 72 hrs by MTT assay; format: functional, cell-based; conditions: MDA-MB-231, 72 h
MCF7 [5] = assay: Anti-estrogenic activity in human MCF7 cells assessed as reduction in ERalpha protein expression at 1.7 to 15 uM measured after 48 hrs by immunoblot analysis; format: functional, cell-based; conditions: dose 1.7-15 µM
MCF7 [6] = assay: Anti-estrogenic activity in human MCF7 cells assessed as reduction in GREB1 protein expression at 1.7 to 15 uM measured after 48 hrs by immunoblot analysis; format: functional, cell-based; conditions: dose 1.7-15 µM
MCF7 [7] = assay: Anti-estrogenic activity in human MCF7 cells transfected with luciferase gene under control of estrogen response elements cotransfected with beta-galactosidase assessed as reduction in 17beta-estradiol induced ERalpha protein expression by measuring reduction in luciferase activity measured after 24 hrs; format: functional, cell-based; conditions: dose 1.7-20 µM
MCF7 [8] = assay: Effect on E-cadherin protein expression in human MCF7 cells at 1.7 to 15 uM measured after 48 hrs by immunoblot analysis; format: functional, cell-based; conditions: dose 1.7-15 µM
MCF7 [9] = assay: Effect on activated AKT protein level in human MCF7 cells at 1.7 to 15 uM measured after 48 hrs by immunoblot analysis; format: functional, cell-based; conditions: dose 1.7-15 µM
MCF7 [10] = assay: Downregulation of cyclin D1 protein expression in human MCF7 cells at 1.7 to 15 uM measured after 48 hrs by immunoblot analysis; format: functional, cell-based; conditions: dose 1.7-15 µM
MCF7 [11] = assay: Downregulation of CDK4 protein expression in human MCF7 cells at 1.7 to 15 uM measured after 48 hrs by immunoblot analysis; format: functional, cell-based; conditions: dose 1.7-15 µM
MCF7 [12] = assay: Downregulation of PCNA protein level in human MCF7 cells at 15 uM measured after 48 hrs by immunoblot analysis; format: functional, cell-based
MCF7 [13] = assay: Induction of cell death in human MCF7 cells assessed as accumulation of cleaved PARP level at 1.7 to 15 uM measured after 48 hrs by immunoblot analysis; format: functional, cell-based; conditions: dose 1.7-15 µM
MCF7 [14] = assay: Induction of cell death in human MCF7 cells assessed as reduction in Bcl-2 protein expression measured after 48 hrs by immunoblot analysis; format: functional, cell-based; conditions: dose 1.7-15 µM
[15] = Cytotoxicity against human THP-1 cells assessed as inhibition of cell growth incubated for 72 hrs by MTT assay; format: toxicity, cell-based
[16] = Selectivity index, ratio of IC50 for human THP-1 cells to IC50 for human MCF7 cells
MCF7 [17] = assay: Synergistic antiproliferative activity against human MCF7 cells assessed as reduction in cell viability at 2.4 uM incubated for 72 hrs in presence of AKT inhibitor IV 6-(2-benzothiazolyl)-1-ethyl-2-[2-(methylphenylamino)ethenyl]-3-phenyl-1H-benzimidazolium mono iodide by MTT assay; format: functional, cell-based
Cytochrome P450 7A1 [18] = target: T1, Cytochrome P450 7A1 (Homo sapiens, UniProt P22680); assay: Binding affinity to recombinant human CYP7A1 by spectrophotometric titration method; format: ADME; conditions: recombinant enzyme
T1 sequence (P22680 whole entry): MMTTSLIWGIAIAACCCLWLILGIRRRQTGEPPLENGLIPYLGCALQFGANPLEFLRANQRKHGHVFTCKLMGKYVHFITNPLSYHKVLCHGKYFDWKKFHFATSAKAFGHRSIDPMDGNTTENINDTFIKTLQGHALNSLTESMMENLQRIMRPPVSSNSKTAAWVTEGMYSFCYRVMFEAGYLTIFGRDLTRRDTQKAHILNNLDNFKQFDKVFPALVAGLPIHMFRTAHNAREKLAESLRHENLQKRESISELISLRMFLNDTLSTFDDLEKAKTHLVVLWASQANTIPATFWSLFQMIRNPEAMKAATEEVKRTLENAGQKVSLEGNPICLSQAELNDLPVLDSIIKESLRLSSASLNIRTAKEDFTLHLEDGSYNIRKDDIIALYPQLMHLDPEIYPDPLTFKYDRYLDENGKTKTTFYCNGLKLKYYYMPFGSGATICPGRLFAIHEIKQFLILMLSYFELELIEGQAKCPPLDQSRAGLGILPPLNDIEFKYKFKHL

Cytochrome P450 7B1 [19] = target: T2, Cytochrome P450 7B1 (Homo sapiens, UniProt O75881); assay: Binding affinity to recombinant human CYP7B1 by spectrophotometric titration method; format: ADME; conditions: recombinant enzyme
T2 sequence (O75881 whole entry): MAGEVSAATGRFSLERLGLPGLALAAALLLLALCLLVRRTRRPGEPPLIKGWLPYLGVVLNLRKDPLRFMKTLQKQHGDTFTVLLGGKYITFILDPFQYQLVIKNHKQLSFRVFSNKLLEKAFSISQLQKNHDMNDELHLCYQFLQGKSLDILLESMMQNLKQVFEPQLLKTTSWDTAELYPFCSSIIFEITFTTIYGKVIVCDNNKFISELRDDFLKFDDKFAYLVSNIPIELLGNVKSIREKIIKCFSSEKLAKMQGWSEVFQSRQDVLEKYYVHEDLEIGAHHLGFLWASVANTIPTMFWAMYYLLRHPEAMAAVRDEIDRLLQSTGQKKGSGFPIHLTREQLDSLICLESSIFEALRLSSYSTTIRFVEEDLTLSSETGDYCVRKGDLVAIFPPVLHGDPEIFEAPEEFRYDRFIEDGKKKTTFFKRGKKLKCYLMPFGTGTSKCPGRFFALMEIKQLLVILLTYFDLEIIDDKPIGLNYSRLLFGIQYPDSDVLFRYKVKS

[20] = target: T3, Steroid 17-alpha-hydroxylase/17,20 lyase (Homo sapiens, UniProt P05093); assay: Binding affinity to recombinant human CYP17A1 by spectrophotometric titration method; format: ADME; conditions: recombinant enzyme
T3 sequence (P05093 whole entry): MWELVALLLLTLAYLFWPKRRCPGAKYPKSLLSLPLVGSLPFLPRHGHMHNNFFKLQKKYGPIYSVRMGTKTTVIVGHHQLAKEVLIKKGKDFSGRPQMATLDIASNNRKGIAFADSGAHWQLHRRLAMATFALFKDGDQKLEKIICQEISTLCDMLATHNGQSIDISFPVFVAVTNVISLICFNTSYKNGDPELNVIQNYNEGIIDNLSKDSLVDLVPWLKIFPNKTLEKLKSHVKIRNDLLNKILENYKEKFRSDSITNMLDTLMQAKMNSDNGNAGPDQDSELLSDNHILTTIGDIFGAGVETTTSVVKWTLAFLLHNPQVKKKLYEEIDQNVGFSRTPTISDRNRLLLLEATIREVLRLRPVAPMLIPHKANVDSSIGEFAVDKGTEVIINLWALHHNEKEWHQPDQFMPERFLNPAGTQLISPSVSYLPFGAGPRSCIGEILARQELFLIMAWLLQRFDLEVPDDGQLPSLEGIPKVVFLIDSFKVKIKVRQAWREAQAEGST

Aromatase = target: T4, Aromatase (Homo sapiens, UniProt P11511); assay: Binding affinity to recombinant human CYP19A1 by spectrophotometric titration method; format: ADME; conditions: recombinant enzyme
T4 sequence (P11511 whole entry): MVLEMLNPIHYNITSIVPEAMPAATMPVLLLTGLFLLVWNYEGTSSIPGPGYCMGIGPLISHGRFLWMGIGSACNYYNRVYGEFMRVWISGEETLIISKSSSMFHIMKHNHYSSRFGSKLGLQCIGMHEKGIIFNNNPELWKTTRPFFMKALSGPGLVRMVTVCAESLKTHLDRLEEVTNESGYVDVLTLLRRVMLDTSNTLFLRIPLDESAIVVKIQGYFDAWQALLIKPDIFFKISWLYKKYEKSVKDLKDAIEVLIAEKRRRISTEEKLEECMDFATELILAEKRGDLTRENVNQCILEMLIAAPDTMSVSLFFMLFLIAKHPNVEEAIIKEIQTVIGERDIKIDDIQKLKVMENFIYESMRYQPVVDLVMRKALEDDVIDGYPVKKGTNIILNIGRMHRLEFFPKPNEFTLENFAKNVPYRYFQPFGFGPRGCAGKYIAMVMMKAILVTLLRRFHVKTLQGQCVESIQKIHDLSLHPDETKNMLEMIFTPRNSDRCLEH

Steroid 21-hydroxylase = target: T5, Steroid 21-hydroxylase (Homo sapiens, UniProt P08686); assay: Binding affinity to recombinant human CYP21A2 by spectrophotometric titration method; format: ADME; conditions: recombinant enzyme
T5 sequence (P08686 whole entry): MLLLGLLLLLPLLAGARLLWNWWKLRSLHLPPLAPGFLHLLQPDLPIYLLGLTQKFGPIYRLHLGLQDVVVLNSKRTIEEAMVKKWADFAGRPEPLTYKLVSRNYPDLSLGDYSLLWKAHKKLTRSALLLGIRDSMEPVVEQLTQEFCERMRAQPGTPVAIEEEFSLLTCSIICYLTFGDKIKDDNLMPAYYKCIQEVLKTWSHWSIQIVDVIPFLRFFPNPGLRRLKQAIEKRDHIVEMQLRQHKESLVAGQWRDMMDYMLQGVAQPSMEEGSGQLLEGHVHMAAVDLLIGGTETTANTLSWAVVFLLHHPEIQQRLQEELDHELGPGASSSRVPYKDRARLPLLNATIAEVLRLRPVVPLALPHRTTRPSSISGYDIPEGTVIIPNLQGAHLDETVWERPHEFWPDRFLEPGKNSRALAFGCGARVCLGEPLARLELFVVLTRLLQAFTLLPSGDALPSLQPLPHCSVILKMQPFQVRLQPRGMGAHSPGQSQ

Cytochrome P450 7A1 [21] = target: T1, Cytochrome P450 7A1; assay: Binding affinity to recombinant human CYP7A1 assessed as substrate-type binding by measuring dissociation constant by spectrophotometric titration method; format: ADME
Cytochrome P450 7B1 [22] = target: T2, Cytochrome P450 7B1; assay: Binding affinity to recombinant human CYP7B1 assessed as substrate-type binding by measuring dissociation constant by spectrophotometric titration method; format: ADME

| Compound | IC50 (MCF7 [3]) [µM] | IC50 (MDA-MB-231 [4]) [µM] | Activity (MCF7 [5]) | Activity (MCF7 [6]) | Activity (MCF7 [7]) | Activity (MCF7 [8]) | Activity (MCF7 [9]) | Activity (MCF7 [10]) | Activity (MCF7 [11]) | Activity (MCF7 [13]) | Activity (MCF7 [14]) | IC50 at 72 h [15] [µM] | Activity (Cytochrome P450 7A1 [18]) | Activity (Cytochrome P450 7B1 [19]) | Activity [20] | Activity (Aromatase) | Activity (Steroid 21-hydroxylase) | further results |
| --- | --- | --- | --- | --- | --- | --- | --- | --- | --- | --- | --- | --- | --- | --- | --- | --- | --- | --- |
| COc1ccc(NC(=O)c2nncc3c2[C@@]2(C)CC[C@H]4[C@@H](CC=C5C[C@@H](OC(C)=O)CC[C@@]54C)[C@@H]2C3)cc1 | – | – | – | – | – | – | – | – | – | – | – | – | – | – | – | – | – | IC50 (MDA-MB-231 [1]): 12.5 µM |
| CC(=O)O[C@H]1CC[C@@]2(C)C(=CC[C@@H]3[C@@H]2CC[C@]2(C)c4c(cnnc4C(=O)Nc4ccc(C(F)(F)F)cc4)C[C@@H]32)C1 | – | – | – | – | – | – | – | – | – | – | – | – | – | – | – | – | – | IC50 (MCF7 [2]): 4.9 µM |
| C[C@]12CCC(=O)C=C1CC[C@@H]1[C@@H]2CC[C@]2(C)c3c(cnnc3P(=O)(Nc3ccccc3)Nc3ccccc3)C[C@@H]12 | 5.9 | 22 | Active | Active | Dose-Dependent Effect | inactive | inactive | Active | Active | Active | Dose-Dependent Effect | > 50 | Not Active | Not Active | Not Active | Not Active | Not Active | Activity (MCF7 [12]): Active; Ratio IC50 [16]: >8.5; Activity (MCF7 [17]): Active |
| COc1cccc2c1C(=O)c1c(O)c3c(c(O)c1C2=O)C[C@@](O)(C(=O)CO)C[C@@H]3O[C@H]1C[C@H](N)[C@H](O)[C@H](C)O1 [DOXORUBICIN] | 0.28 | 0.27 | – | – | – | – | – | – | – | – | – | 0.045 | – | – | – | – | – | – |
| C[C@]12CCC(=O)C=C1CC[C@@H]1[C@@H]2CC[C@]2(C)c3c(cnnc3P(=O)(c3ccccc3)c3ccccc3)C[C@@H]12 | 6.5 | 18.1 | Active | inactive | Dose-Dependent Effect | inactive | inactive | Active | Active | Active | Dose-Dependent Effect | – | Not Active | Not Active | Not Active | Not Active | Not Active | – |
| CC(C)(C)NP(=O)(NC(C)(C)C)c1nncc2c1CC1CC[C@H]3[C@@H]4CC[C@H](O)[C@@]4(C)CC[C@@H]3[C@@]1(C)C2 (stereo not given in full) | 22.1 | > 25 | – | – | – | – | – | – | – | – | – | – | – | – | – | – | – | Kd (Cytochrome P450 7A1 [21]): 2.1 µM; Kd (Cytochrome P450 7B1 [22]): 1.7 µM |
